Results taken from patent US20260234150A1, “COMPOUND FOR INHIBITING NLRP3, PREPARATION METHOD, AND USE” (DOVETREE MEDICINES UNUS, INC., priority 2023, published 2026).

Legend:
[1] = tested on: IL-1β secretion of THP-1 cells; test: Effect of NLRP3 inhibitor on IL-1β secretion of THP-1 cells (AlphaLISA); type: cell-based; conditions: Homo sapiens; PMA, LPS and Nigericin stimulated THP-1 cells, IL-1β in supernatant; read-out: IC50 (nM), THP-1 cells to detect NLRP3 inhibitors
Description: This experiment used the PerkinElmer AlphaLISA_human_IL1β kit (AL220 C/F). The detection buffer was RPMI-1640+10FBS. AlphaLISA Immunoassay Buffer, AlphaLISA Anti-IL1β Acceptor beads, Streptavidin (SA)-coated Donor beads, and Biotinylated Antibody Anti-IL1β were all included in the kit.
The density of THP1 cells was adjusted to 4×10^5 cells/mL, PMA (final concentration 50 nM) was added, inoculated into 96-well flat-bottom plates at 200 μL/well, and stimulated overnight at 37° C., 5% CO2 (try to <16h). The next day, the supernatant was discarded, and the flat washed twice with DPBS ([…]/time). Then LPS solution (final concentration of 100 ng/ml) was added at 198 μL/well, incubated at 37° C., 5% CO2 for 3h. 1 μL of the corresponding concentration of compounds was added to each well according to the experimental MAP, incubated at 37° C., 5% CO2 for 1 h. 1 μL Nigericin (final concentration of […]) was added to each well, incubated overnight at 5% CO2 (>18h). On the third day, 5 μL of supernatant was taken, diluted 20 times, and the content of IL-Iβ in the supernatant was detected by Human Interleukin 1 beta (IL1β) Kit. Envision was used to read the AlphaLISA test value of Ex=680/[…]. GraphPad Prism 9.5.0 was used to analyze the data, and the IC50 value of the compound for IL-Iβ antagonism was fitted by four-parameter Logistic.

[2] = target: T1, hERG ion channel (Homo sapiens, UniProt Q12809); test: hERG ion channel inhibition, manual patch clamp in HEK293 cells; type: cell-based; conditions: HEK293 cells stably expressing hERG, read-out: hERG(IC50, manupatch)
T1 construct: host or cells: HEK293
T1 sequence (Q12809 whole entry): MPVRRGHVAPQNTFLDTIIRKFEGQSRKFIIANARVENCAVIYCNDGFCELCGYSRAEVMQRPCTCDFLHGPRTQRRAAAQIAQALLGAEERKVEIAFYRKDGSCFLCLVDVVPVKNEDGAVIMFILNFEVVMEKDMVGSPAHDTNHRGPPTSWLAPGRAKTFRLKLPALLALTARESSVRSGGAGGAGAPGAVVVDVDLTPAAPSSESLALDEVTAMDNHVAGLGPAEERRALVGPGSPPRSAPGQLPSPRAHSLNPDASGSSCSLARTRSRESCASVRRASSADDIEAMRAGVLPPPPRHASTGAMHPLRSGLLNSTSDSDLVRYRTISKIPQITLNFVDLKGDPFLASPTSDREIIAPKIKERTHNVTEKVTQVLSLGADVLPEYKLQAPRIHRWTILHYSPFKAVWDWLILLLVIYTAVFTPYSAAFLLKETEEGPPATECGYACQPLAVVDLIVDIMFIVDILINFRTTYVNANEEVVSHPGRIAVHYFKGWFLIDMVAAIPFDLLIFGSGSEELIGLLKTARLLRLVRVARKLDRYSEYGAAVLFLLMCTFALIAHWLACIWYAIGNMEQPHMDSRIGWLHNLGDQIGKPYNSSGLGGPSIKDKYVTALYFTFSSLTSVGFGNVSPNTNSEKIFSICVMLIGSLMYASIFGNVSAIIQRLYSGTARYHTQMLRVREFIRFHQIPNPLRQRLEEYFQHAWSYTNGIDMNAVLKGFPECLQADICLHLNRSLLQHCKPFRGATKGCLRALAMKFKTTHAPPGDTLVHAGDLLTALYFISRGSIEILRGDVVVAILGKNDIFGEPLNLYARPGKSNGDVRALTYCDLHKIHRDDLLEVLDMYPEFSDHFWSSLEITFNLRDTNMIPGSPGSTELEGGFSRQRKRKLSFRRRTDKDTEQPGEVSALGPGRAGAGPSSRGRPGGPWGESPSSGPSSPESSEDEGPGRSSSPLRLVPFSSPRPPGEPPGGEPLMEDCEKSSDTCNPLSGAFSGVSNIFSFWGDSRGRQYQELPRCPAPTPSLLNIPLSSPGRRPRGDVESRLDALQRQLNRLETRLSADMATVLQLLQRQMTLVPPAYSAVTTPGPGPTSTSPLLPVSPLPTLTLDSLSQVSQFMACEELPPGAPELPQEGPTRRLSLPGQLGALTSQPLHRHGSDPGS
Description: This experiment used manual patch clamp electrophysiology to detect the inhibitory effect of compounds on hERG ion channels, and evaluated cardiac safety based on the single concentration inhibition rate or IC50 size of the compounds.
The cells used in this experiment are HEK293 cell lines transfected with hERG cDNA and stably expressing hERG channels (#60187, provided by BPS, P3-P23 generations are used for experimental research). Cells were cultured in a medium containing the following components: MEM medium, 10% (v/v) inactivated fetal bovine serum, 1 mM sodium pyruvate, […] geneticin, 0.1 mM non-essential amino acids, and 100 U penicillin-streptomycin. HEK293 hERG cells were grown in culture flasks containing the above culture medium and cultured in an incubator at 37° C. and 5% CO2. […]
The electrophysiological experiments were performed by a manual patch clamp system (HEKAEPC-10 signal amplifier and digital conversion system, purchased from HEKA Electronics, Germany) to record the whole-cell current. […] After the hERG current recorded in the above steps reaches stability under continuous perfusion of extracellular fluid in the recording tank, different concentrations of the test compound can be perfused until the inhibitory effect of the drug on the hERG current reaches a stable state. […]

[3] = target: T2, His6-Flag-TEV-NLRP3 (134-1036) (Homo sapiens, UniProt Q96P20); test: NLRP3 fluorescence polarization (FP) binding assay, competition with probe NP3-301; conditions: competition with NP3-301 for binding to NLRP3 (134-1036), 30 nM protein
T2 construct: fused on or other part: N-terminal His6 tag, Flag tag and TEV cleavage site
T2 sequence (Q96P20 134-1036 limits assumed): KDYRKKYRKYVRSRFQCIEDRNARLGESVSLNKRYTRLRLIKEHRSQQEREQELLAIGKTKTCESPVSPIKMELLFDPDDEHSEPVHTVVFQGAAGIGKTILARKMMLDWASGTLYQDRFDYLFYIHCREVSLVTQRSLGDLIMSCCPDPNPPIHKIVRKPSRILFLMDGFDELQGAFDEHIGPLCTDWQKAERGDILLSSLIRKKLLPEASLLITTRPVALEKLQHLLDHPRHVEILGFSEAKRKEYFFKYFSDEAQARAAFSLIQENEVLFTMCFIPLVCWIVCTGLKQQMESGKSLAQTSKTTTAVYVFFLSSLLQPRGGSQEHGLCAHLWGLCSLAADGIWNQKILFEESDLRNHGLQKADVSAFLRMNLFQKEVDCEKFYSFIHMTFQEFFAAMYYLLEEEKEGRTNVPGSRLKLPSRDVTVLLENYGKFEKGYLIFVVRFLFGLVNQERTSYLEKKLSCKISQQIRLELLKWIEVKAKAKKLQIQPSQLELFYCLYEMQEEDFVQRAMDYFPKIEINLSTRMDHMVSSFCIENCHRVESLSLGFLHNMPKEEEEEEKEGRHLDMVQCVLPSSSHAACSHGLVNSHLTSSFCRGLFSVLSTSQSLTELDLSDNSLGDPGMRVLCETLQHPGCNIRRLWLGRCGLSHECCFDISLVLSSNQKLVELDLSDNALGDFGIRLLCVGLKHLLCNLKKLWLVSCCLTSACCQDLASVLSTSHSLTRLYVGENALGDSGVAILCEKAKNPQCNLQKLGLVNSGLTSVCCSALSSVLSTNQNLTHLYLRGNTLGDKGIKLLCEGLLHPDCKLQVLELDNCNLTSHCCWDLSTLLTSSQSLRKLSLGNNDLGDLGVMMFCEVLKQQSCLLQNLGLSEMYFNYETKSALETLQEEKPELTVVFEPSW
Procedure, shortened: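 Compound was preincubated 60 min at room temperature with NLRP3 protein (30 nM final) in 50 mM Hepes pH 7.4, 150 mM NaCl, 2.5 mM MgCl2, 1 mM TCEP, 100 μM ATP. Probe NP3-301 (0.5 nM final) was then added for 30 min. Fluorescence polarization was read at ex 485/em 535 nm, and IC50 was obtained by four-parameter logistic fit.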

IC50 [1]: < 50 nM
IC50 [3]: ≤ 100 nM
SMILES: Cc1cc(C(F)(F)F)cc(O)c1-c1ccc2oc(N3CCS(=O)(=O)CC3)nc2n1 [Compound 384]
IC50 [2]: > 30000 nM
